How the values were obtained:
[1] = biological target: T1, Synaptic vesicular amine transporter (Rattus norvegicus, UniProt Q01827); test: Displacement of [18F](+)-FP-DTBZ from VMAT2 in rat striatal homogenate after 60 mins by gamma counting
[2] = biological target: T1, Synaptic vesicular amine transporter; test: Displacement of [125I]-iodovinyl-TBZ from VMAT2 in rat striatal homogenate after 60 mins by gamma counting
Nucleic Acid = test: Ratio of drug uptake in striatum to cerebellum in ICR mouse at 10 to 20 uCi, iv by gamma counting; assay type: ADME, organism-based; conditions: in vivo

T1 sequence (Q01827 whole entry): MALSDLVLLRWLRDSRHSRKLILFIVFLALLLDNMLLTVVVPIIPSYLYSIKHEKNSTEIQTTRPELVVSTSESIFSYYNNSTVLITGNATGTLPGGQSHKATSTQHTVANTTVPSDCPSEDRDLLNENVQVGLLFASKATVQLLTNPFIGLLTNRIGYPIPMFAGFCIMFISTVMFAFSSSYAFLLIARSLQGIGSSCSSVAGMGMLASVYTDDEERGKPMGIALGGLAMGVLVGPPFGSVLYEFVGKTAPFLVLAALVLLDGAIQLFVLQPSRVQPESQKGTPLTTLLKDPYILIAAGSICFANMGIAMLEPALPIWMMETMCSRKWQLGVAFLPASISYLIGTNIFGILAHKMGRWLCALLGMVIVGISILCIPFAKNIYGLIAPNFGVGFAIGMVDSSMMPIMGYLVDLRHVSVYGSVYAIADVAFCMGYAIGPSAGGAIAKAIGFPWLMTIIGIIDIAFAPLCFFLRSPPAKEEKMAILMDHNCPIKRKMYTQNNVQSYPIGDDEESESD

SMILES	Ki [2] [nM]	other results
C=CCC1CN2CCc3cc(OC)c(OC)cc3C2C[C@H]1O (mixture of isomers)	–	Ki [1]: 253 nM
COc1cc2c(cc1OC)C1C[C@@H](O)C(CC3CCC3)CN1CC2 (mixture of isomers)	26.9	–
COc1cc2c(cc1OC)C1C[C@@H](O)C(CC3CCCC3)CN1CC2 (mixture of isomers)	227	–
COc1cc2c(cc1OC)C1C[C@@H](O)C(CC3CCCCC3)CN1CC2 (mixture of isomers)	137	–
C/C=C/C1CN2CCc3cc(OCCCF)c(OC)cc3C2C[C@H]1O (mixture of isomers)	–	Ki [1]: 22.4 nM
COc1cc2c(cc1OCCC[18F])CCN1C[C@@H](CC(C)C)[C@H](O)C[C@H]21 [FLORBENAZINE F 18]	–	Ratio (Nucleic Acid): 4.51
COc1cc2c(cc1OCCCF)CCN1C[C@@H](CC(C)C)[C@H](O)C[C@H]21 [FLORBENAZINE]	0.1	–

From ChEMBL document CHEMBL1777673, “Synthesis and biological evaluation of 3-alkyl-dihydrotetrabenazine derivatives as vesicular monoamine transporter-2 (VMAT2) ligands” (Bioorg Med Chem Lett, 2011)
